What was measured:
Format in all cases: in vivo
[1] = test system: foxtail, giant (giant foxtail, Setaria faberi); test: Test C preemergence, giant foxtail; details: 0 is no effect, 100 is complete control
In short: (§1)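 Herbicidal effect was estimated visually on a 0–100 scale 10 or 12 days after spraying. Formulation: non-phytotoxic solvent mixture with surfactant. Timing: directed soil spray after sowing, or postemergence on seedlings bearing one or two leaves.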

[2] = test system: kochia (Bassia scoparia); test: Test C preemergence, kochia; details: 0 is no effect, 100 is complete control
In short: as §1

[3] = test system: oat, wild (wild oat, Avena fatua); test: Test C postemergence, wild oat; details: visual injury, 0 to 100 scale (0 no effect, 100 complete control)
[4] = test system: pigweed, palmer (palmer amaranth, Amaranthus palmeri); test: Test C postemergence, palmer amaranth; details: visual injury, 0 to 100 scale (0 no effect, 100 complete control)
In short: as §1

[5] = test system: ragweed (common ragweed, Ambrosia artemisiifolia); test: Test C postemergence, ragweed; details: visual injury, 0 to 100 scale (0 no effect, 100 complete control)
In short: as §1

[6] = test system: soybean (Glycine max); test: Test C postemergence, soybean; details: visual injury, 0 to 100 scale (0 no effect, 100 complete control)
[7] = test system: barnyardgrass (Echinochloa crusgalli); test: Test D flooded paddy test, barnyardgrass; design: key: 0 = no effect, 100 = complete control; details: 250 g ai/ha, Flood; applied to paddy water at 2-leaf stage; visual rating after 13 days; scale 0 (no effect) to 100 (complete control)
In short: (§2)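 Under 3 cm of standing water, kept constant after treatment, 2-leaf plants received compound via the paddy water. Ratings on a 0–100 control scale were assigned visually after 13 greenhouse days; a dash denotes no test result.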

[8] = test system: rice (Oryza sativa); test: Test D flooded paddy test, rice; design: key: 0 = no effect, 100 = complete control; details: 250 g ai/ha, Flood; applied to paddy water at 2-leaf stage; visual rating after 13 days; scale 0 (no effect) to 100 (complete control)
In short: as §2

[9] = test system: sedge, umbrella (small-flower umbrella sedge, Cyperus difformis); test: Test D flooded paddy test, umbrella sedge; design: key: 0 = no effect, 100 = complete control; details: 250 g ai/ha, Flood; applied to paddy water at 2-leaf stage; visual rating after 13 days; scale 0 (no effect) to 100 (complete control)
In short: as §2

Row | SMILES | Plant response rating (0 to 100 scale), Foxtail, Giant ([1]; 31 g ai/ha Preemergence) | Plant response rating (0 to 100 scale), Foxtail, Giant ([1]; 125 g ai/ha Preemergence) | Plant response rating (0 to 100 scale), Kochia ([2]; 31 g ai/ha Preemergence) | Plant response rating (0 to 100 scale), Kochia ([2]; 125 g ai/ha Preemergence) | Oat, Wild plant response rating ([3]; 31 g ai/ha Postemergence) | Oat, Wild plant response rating ([3]; 125 g ai/ha Postemergence) | Pigweed, Palmer plant response rating ([4]; 31 g ai/ha Postemergence) | Pigweed, Palmer plant response rating ([4]; 125 g ai/ha Postemergence) | Ragweed plant response rating ([5]; 31 g ai/ha Postemergence) | Ragweed plant response rating ([5]; 125 g ai/ha Postemergence) | Soybean plant response rating ([6]; 31 g ai/ha Postemergence) | Soybean plant response rating ([6]; 125 g ai/ha Postemergence) | Plant response rating, Barnyardgrass [7] | Plant response rating, Rice [8] | Plant response rating, Sedge, Umbrella [9]
1 | Cc1cc(C)c(N2CCC(OCC3CCC3)C2=O)cc1NS(=O)(=O)C(F)(F)F (stereo not drawn) [Compound 43] | 30 | 100 | 60 | 80 | 10 | 20 | 40 | 90 | 50 | 90 | 80 | 90 | 25 | 30 | 95
2 | Cc1c(NS(=O)(=O)C(F)(F)F)cc(N2CCC(OC3CCC3)C2=O)c(C)c1C (stereo not drawn) [Compound 45] | 100 | 100 | 90 | 100 | 10 | 30 | 70 | 90 | 50 | 80 | 80 | 100 | 95 | 55 | 90
3 | Cc1c(NS(=O)(=O)C(F)(F)F)cc(N2CCC(OC3CC3)C2=O)c(C)c1C (stereo not drawn) [Compound 47] | 100 | 100 | 70 | 100 | 10 | 60 | 30 | 70 | 60 | 80 | 70 | 90 | 75 | 30 | 95
4 | Cc1c(N2CCC(OC3CCC3)C2=O)cc(N(C(=O)OCC(C)C)S(=O)(=O)C(F)(F)F)c(C)c1C (stereo not drawn) [Compound 48] | 30 | 100 | 10 | 90 | 10 | 20 | 30 | 70 | 30 | 80 | 30 | 70 | 80 | 25 | 90
5 | Cc1c(N2CCC(OC3CC3)C2=O)cc(N(COC(=O)C(C)(C)C)S(=O)(=O)C(F)(F)F)c(C)c1C (stereo not drawn) [Compound 49] | 20 | 90 | 30 | 70 | 30 | 70 | 10 | 50 | 70 | 90 | 60 | 80 | 100 | 40 | 90
6 | Cc1c(N2CCC(OC3CC3)C2=O)cc(N(C(=O)OCC(C)C)S(=O)(=O)C(F)(F)F)c(C)c1C (stereo not drawn) [Compound 50] | 50 | 100 | 20 | 100 | 20 | 50 | 20 | 60 | 70 | 80 | 60 | 80 | 90 | 20 | 95
7 | Cc1c(N2CCC(OC3CCC3)C2=O)cc(N(COC(=O)C(C)(C)C)S(=O)(=O)C(F)(F)F)c(C)c1C (stereo not drawn) [Compound 51] | 10 | 90 | 30 | 80 | 0 | 30 | 10 | 60 | 60 | 80 | 30 | 60 | 100 | 10 | 90

From patent US20240158348A1, “HERBICIDAL CYCLIC AMIDES N-SUBSTITUTED WITH A HALOALKYLSULFONYLANILIDE GROUP” (FMC Corporation, priority 2021, published 2024)
